Experiment [1] deals with Akt phosphorylation (Ser473-p-Akt) in PC-3 cells. In words: Inhibition of p-Akt phosphorylation level in PC-3 cells (cell level fluorescence imaging). The note with it: Homo sapiens, read-out: PC-3 cell (IC50/nM). Format: cell-based. As to the method:
This experiment was performed by cell level fluorescence image processing method.
Triton X-100: 10% aqueous Triton X-100 solution (Sigma T8787-100 mL) was prepared, stored at 4° C. and diluted by 1:100 to give 0.1% Triton X-100 aqueous solution for use in the experiment.
Prodium Iodide (PI): 1 mg/mL (1.5 mM) PI (Sigma P4170) storage solution was prepared with PBS and stored at −25° C. in the dark. For use, the PI storage solution was diluted with PBS by 1:1000 to give a 1.5 μM solution and used in dark.
PC-3 cells in logarithmic growth phase were digested with 0.25% EDTA trypsin. 3000 cells/90 μL were seeded in a 96-well plate (BD 356692) and cultured at 37° C. and 5% CO2. After the cells adhered, 10 μL of the compound to be tested which was gradiently diluted 3 times (0.0046 to 10 μM, 8 concentration points, in duplicate) was added and incubated for 2 hours, followed by addition of 100 μL of 4% paraformaldehyde (DINGGUO AR-0211) and incubated at room temperature for 45 minutes. Then 100 μL of 0.1% Triton X-100 solution was added and incubated for another 30 minutes.
Triton X-100 solution was removed and the cells were rinsed with 200 μl of PBS twice (300 rpm vibration for 1 minute). The blocking solution (1% BSA solution in PBS) (Genview FA016-100G) was added and incubated at room temperature for 2 hours. The plate was rinsed with PBS once (300 rpm, 1 min) and 30 μL of Ser473-p-Akt antibody (cell signaling 4060L) diluted with 0.1% BSA was added and incubated overnight at 4° C. Ser473-p-Akt antibody was removed and the plate was rinsed with PBS twice (300 rpm, 1 minute). 35 μL of Alexa Flour 488 donkey anti-rabbit IgG (Invitrogen A21206) was added and incubated at room temperature for 1.5 hours. The plate was rinsed with PBS twice (300 rpm, 1 minute) and 35 μL of 1.5 μM PI was added and incubated at room temperature for 0.5 h. The fluorescence intensity was measured with Acumen eX3 (TTP LabTech).
10 μM BEZ235 (Selleck S1009) treatment group was negative control and DMSO treatment group was positive control. Inhibition ratio %=[1−(the mean value of the fluorescence intensity of the compound to be tested−the mean value of the fluorescence intensity of the negative control group)/(the mean value of the fluorescence intensity of the positive control group−the mean value of the fluorescence intensity of the negative control group)]×100%

In experiment [2] the target is T1, PI3K-β kinase (p110β/p85α) (Homo sapiens, UniProt P42338).
T1 construct: purchased Millipore 14-603
In words: Determination of PI3K kinase activity (ADP Transcreener, fluorescence polarization). Type of experiment: biochemical. The conditions noted are these: Table 1; ATP 10 μM; read-out: PI3K-β/nM (IC50 of inhibitory activity against PI3K kinase).

The mark [3] stands for this setting: Akt phosphorylation in PC-3 cells, 2 hours incubation.

Like-named read-outs stand apart in the source and are kept apart here.

T1 sequence (P42338 whole entry): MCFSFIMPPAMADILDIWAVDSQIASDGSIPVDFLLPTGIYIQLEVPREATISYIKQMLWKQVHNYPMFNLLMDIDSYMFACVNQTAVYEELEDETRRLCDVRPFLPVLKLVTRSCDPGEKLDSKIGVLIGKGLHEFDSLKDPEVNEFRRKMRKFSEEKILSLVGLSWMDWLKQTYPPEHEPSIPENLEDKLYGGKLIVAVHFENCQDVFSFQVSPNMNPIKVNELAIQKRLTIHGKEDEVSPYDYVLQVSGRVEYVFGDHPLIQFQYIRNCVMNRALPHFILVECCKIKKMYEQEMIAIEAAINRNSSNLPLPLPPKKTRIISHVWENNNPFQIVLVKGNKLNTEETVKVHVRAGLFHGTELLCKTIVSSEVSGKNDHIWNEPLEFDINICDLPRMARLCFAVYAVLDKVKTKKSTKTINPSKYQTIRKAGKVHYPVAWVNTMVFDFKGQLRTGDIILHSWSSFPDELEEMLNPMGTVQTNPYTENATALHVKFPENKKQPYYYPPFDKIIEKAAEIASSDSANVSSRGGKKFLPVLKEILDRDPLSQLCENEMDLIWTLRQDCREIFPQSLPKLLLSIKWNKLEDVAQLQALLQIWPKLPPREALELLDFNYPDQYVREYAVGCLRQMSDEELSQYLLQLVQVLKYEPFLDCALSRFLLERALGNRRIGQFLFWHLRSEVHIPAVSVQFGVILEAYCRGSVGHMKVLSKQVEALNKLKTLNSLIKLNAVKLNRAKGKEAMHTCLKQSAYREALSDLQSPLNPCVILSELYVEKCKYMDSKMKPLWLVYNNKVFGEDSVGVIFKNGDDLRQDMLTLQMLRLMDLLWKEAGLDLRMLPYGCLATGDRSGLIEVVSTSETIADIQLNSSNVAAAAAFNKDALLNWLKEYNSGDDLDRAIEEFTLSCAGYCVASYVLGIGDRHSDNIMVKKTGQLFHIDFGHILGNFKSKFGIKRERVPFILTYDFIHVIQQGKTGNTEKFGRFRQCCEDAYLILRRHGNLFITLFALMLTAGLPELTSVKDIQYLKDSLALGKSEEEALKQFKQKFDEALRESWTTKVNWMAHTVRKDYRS
T1 sequence (P27986 whole entry partner): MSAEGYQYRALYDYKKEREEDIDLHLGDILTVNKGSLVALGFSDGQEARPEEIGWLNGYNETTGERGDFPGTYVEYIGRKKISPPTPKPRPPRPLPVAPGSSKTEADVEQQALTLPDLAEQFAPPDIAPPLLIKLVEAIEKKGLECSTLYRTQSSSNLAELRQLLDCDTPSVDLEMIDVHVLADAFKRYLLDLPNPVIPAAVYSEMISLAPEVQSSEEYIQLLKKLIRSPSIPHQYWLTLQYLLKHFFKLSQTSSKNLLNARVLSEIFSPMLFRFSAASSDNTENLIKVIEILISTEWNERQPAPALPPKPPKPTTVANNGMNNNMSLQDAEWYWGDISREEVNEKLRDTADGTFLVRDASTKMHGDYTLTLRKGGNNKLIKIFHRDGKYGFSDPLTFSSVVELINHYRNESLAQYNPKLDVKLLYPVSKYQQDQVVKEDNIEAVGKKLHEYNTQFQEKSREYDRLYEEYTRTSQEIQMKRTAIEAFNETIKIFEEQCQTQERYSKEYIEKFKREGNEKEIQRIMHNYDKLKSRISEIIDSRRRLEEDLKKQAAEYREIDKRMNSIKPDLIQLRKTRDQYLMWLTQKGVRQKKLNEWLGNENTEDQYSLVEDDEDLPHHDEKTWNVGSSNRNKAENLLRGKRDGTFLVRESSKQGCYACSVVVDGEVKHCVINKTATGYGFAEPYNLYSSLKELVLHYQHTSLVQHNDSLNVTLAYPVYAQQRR

Take `CS(=O)(=O)C1(c2cc(-c3cnc(N)cc3C(F)(F)F)nc(N3CCOCC3)n2)CCC1` [Compound S-4]: the IC50 in experiment [1] (setting [3]) was 248 nM; in experiment [2], 527 nM.
Consider `C[C@H]1COCCN1c1nc(-c2cnc(N)cc2C(F)(F)F)cc(C2(S(C)(=O)=O)CCC2)n1` [Compound S-9], for which the IC50 was 184 nM in experiment [1] (setting [3]) and 105 nM in experiment [2].
As for `CS(=O)(=O)C1(c2cc(-c3cnc(N)cc3C(F)(F)F)nc(N3CCOCC3)n2)CCCC1` [Compound S-10], the IC50 in experiment [1] (setting [3]) was 384 nM; in experiment [2] it was 1140 nM.
The like results for `CC(C)S(=O)(=O)C1(c2cc(-c3cnc(N)cc3C(F)(F)F)nc(N3CCOC[C@@H]3C)n2)CCC1` [Compound S-13, (S)-5-(6-(1-(isopropylsulfonyl)cyclobutyl)-2-(3-methylmorpholino)pyrimidin-4-yl)-4-(trifluoromethyl)pyridin-2-amine] were, in that order, 463 nM and 1670 nM.
`CC(C)S(=O)(=O)C1(c2cc(-c3cnc(N)cc3C(F)(F)F)nc(N3CCOCC3)n2)CC1` [Compound S-18]: the figures for the IC50 in experiment [1] (setting [3]) and in experiment [2] were 430 nM and 548 nM, respectively.
On to `CC(C)S(=O)(=O)C1(c2cc(-c3cnc(N)cc3C(F)(F)F)nc(N3CCOCC3)n2)CCC1` [Compound S-19], for which the IC50 is 575 nM in experiment [1] (setting [3]) and 512 nM in experiment [2].
As for `Nc1cc(C(F)(F)F)c(-c2cc(C3(S(=O)(=O)c4ccccc4)CCC3)nc(N3CCOCC3)n2)cn1` [Compound S-20], the IC50 in experiment [2] amounted to 676 nM.
For the compound `CCS(=O)(=O)C1(c2cc(-c3cnc(N)cc3C(F)(F)F)nc(N3CCOC[C@@H]3C)n2)CCC1` [Compound S-23], the IC50 in experiment [1] (setting [3]) is 366 nM; in experiment [2], 620 nM.
For the compound `C[C@H]1COCCN1c1nc(-c2cnc(N)nc2C(F)(F)F)cc(C2(S(C)(=O)=O)CCC2)n1` [Compound S-30], the IC50 in experiment [1] (setting [3]) is 101 nM; in experiment [2], 18 nM.
For `C[C@H]1COCCN1c1nc(-c2cnc(N)cc2Cl)cc(C2(S(C)(=O)=O)CCC2)n1` [Compound S-31] the same measures were 126 nM and 171 nM.
The like results for `C[C@H]1COCCN1c1nc(-c2ccc(N)nc2)cc(C2(S(C)(=O)=O)CCC2)n1` [Compound S-32] were, in that order, 74 nM and 977 nM.
For `C[C@H]1COCCN1c1nc(-c2cnc(N)nc2)cc(C2(S(C)(=O)=O)CCC2)n1` [Compound S-33] the same measures were 109 nM and 115 nM.
For the compound `CS(=O)(=O)C1(c2cc(-c3cnc(N)cc3Cl)nc(N3CCOCC3)n2)CC1` [Compound S-37, 4-chloro-5-(6-(1-(methylsulfonyl)cyclopropyl)-2-morpholinopyrimidin-4-yl)pyridin-2-amine], the IC50 in experiment [1] (setting [3]) was 198 nM; in experiment [2] it was 28 nM.
For `CC(C)(c1cc(-c2cnc(N)cc2Cl)nc(N2CCOCC2)n1)S(C)(=O)=O` [Compound S-38, 4-chloro-5-(6-(2-(methylsulfonyl)prop-2-yl)-2-morpholinopyrimidin-4-yl)pyridin-2-amine] the same measures were 332 nM and 113 nM.
For the compound `C[C@H]1COCCN1c1nc(-c2cnc(N)cc2C(F)(F)F)cc(C(C)(C)S(C)(=O)=O)n1` [Compound S-41], the figures for the IC50 in experiment [1] (setting [3]) and in experiment [2] were 414 nM and 82 nM, respectively.
For `CC(C)(c1cc(-c2cnc(N)nc2C(F)(F)F)nc(N2CCOCC2)n1)S(C)(=O)=O` [Compound S-45] the same measures were 156 nM and 28 nM.
For `CS(=O)(=O)C1(c2cc(-c3cnc(N)nc3C(F)(F)F)nc(N3CCOCC3)n2)CC1` [Compound S-46] the same measures were 131 nM and 8 nM.
The like results for `CCS(=O)(=O)C1(c2cc(-c3cnc(N)cc3C(F)(F)F)nc(N3CCOCC3)n2)CCC1` [Compound S-49, 5-(6-(1-(ethylsulfonyl)cyclobutyl)-2-morpholinopyrimidin-4-yl)-4-(trifluoromethyl)pyridin-2-amine] were, in that order, 382 nM and 327 nM.
Turning to `CS(=O)(=O)C(F)(F)c1cc(-c2cnc(N)cc2Cl)nc(N2CCOCC2)n1` [Compound S-54, 4-chloro-5-(6-(difluoro(methylsulfonyl)methyl)-2-morpholinopyrimidin-4-yl)pyridin-2-amine], the figures for the IC50 in experiment [1] (setting [3]) and in experiment [2] were 488 nM and 92 nM, respectively.
On to `Nc1cc(C(F)(F)F)c(-c2cc(C3(S(=O)(=O)c4ccccc4F)CC3)nc(N3CCOCC3)n2)cn1` [Compound S-58], for which the IC50 in experiment [1] (setting [3]) was found to be 367 nM; in experiment [2], 72 nM.
The like results for `Nc1cc(Cl)c(-c2cc(C3(S(=O)(=O)c4ccccc4F)CC3)nc(N3CCOCC3)n2)cn1` [Compound S-66] were, in that order, 253 nM and 73 nM.
The like results for `C[C@@H]1COCCN1c1nc(-c2cnc(N)cc2Cl)cc(C(C)(C)S(C)(=O)=O)n1` [Compound S-67] were, in that order, 187 nM and 208 nM.
For `C[C@@H]1COCCN1c1nc(-c2cnc(N)cc2Cl)cc(C2(S(C)(=O)=O)CC2)n1` [Compound S-68] the same measures were 183 nM and 92 nM.
With `COC(C)(C)c1cc(-c2cnc(N)cc2C(F)(F)F)nc(N2CCOCC2)n1` [Compound S-71, 5-(6-(2-methoxypropan-2-yl)-2-morpholinopyrimidin-4-yl)-4-(trifluoromethyl) pyridin-2-amine], the IC50 in experiment [1] (PC-3, 2 h) is 555 nM; in experiment [2], 177 nM.
In the case of `COC(C)(C)c1cc(-c2cnc(N)cc2Cl)nc(N2CCOC[C@@H]2C)n1` [Compound S-75], the IC50 was found to be 385 nM in experiment [1] (setting [3]) and 943 nM in experiment [2].
For `COC(C)(C)c1cc(-c2cnc(N)cc2Cl)nc(N2CCOCC2)n1` [Compound S-76] the same measures were 531 nM and 316 nM.
`CC(C)(c1cc(-c2cnc(N)cc2F)nc(N2CCOCC2)n1)S(C)(=O)=O` [Compound S-81]: the IC50 was determined as 215 nM in experiment [1] (setting [3]) and 812 nM in experiment [2].
The like results for `CS(=O)(=O)C1(c2cc(-c3cnc(N)cc3F)nc(N3CCOCC3)n2)CC1` [Compound S-82] were, in that order, 369 nM and 86 nM.
On to `C[C@H]1COCCN1c1nc(-c2cnc(N)cc2F)cc(C2(S(C)(=O)=O)CC2)n1` [Compound S-83], for which the IC50 in experiment [1] (setting [3]) is 196 nM.
Turning to `C[C@H]1COCCN1c1nc(-c2cnc(N)cc2F)cc(C(C)(C)S(C)(=O)=O)n1` [Compound S-84], the results for the IC50 in experiment [1] (setting [3]) and in experiment [2] were 121 nM and 812 nM, respectively.
The like results for `CCS(=O)(=O)C1(c2cc(-c3cnc(N)cc3F)nc(N3CCOCC3)n2)CC1` [Compound S-85] were, in that order, 161 nM and 484 nM.
The like results for `CC(C)S(=O)(=O)C1(c2cc(-c3cnc(N)cc3F)nc(N3CCOCC3)n2)CC1` [Compound S-86] were, in that order, 240 nM and 763 nM.
The like results for `Nc1cc(F)c(-c2cc(C3(S(=O)(=O)C4CC4)CC3)nc(N3CCOCC3)n2)cn1` [Compound S-88] were, in that order, 349 nM and 521 nM.
For `CS(=O)(=O)C1(c2cc(N3CCOCC3)nc(-c3cnc(N)cc3C(F)(F)F)n2)CC1` [reference compound], the IC50 in experiment [1] (setting [3]) came out at 1020 nM; in experiment [2], 2160 nM.

(Values after patent publication US10227324B2 (Shanghai Haiyan Pharmaceutical Technology Co., Ltd., priority 2014, dated 2019).)
